Measured values published in the NIST ThermoML archive (doi:10.1021/je060139a).

Legend:
[1] = xn = mol fraction of the nth substance listed; conditions: Wilhelmy plate method
[2] = refractive index (Na D-line) (dimensionless); xn = mol fraction of the nth substance listed; conditions: 100.5 kPa, Liquid, Standard Abbe refractometry

CCOC(=O)CC(C)C [ethyl 3-methylbutanoate] + CCO
Conditions | refractive index, [2] | surface tension liquid-gas, [1] [mN/m]
288.15 K, x1 = 0.05 | 1.3677 | 23.14
288.15 K, x1 = 0.1 | 1.37142 | 23.26
288.15 K, x1 = 0.15 | 1.37464 | 23.37
288.15 K, x1 = 0.2 | 1.37745 | 23.46
288.15 K, x1 = 0.25 | 1.37993 | 23.55
288.15 K, x1 = 0.3 | 1.38213 | 23.62
288.15 K, x1 = 0.35 | 1.3841 | 23.69
288.15 K, x1 = 0.4 | 1.38587 | 23.76
288.15 K, x1 = 0.45 | 1.38748 | 23.82
288.15 K, x1 = 0.5 | 1.38894 | 23.88
288.15 K, x1 = 0.55 | 1.39028 | 23.93
288.15 K, x1 = 0.6 | 1.39151 | 23.99
288.15 K, x1 = 0.65 | 1.39264 | 24.04
288.15 K, x1 = 0.7 | 1.39369 | 24.09
288.15 K, x1 = 0.75 | 1.39467 | 24.15
288.15 K, x1 = 0.8 | 1.39559 | 24.2
288.15 K, x1 = 0.85 | 1.39646 | 24.25
288.15 K, x1 = 0.9 | 1.39729 | 24.3
288.15 K, x1 = 0.95 | 1.39807 | 24.35
288.15 K, x1 = 1 | 1.3988 | 24.4
298.18 K, x1 = 0.05 | 1.36363 | 22.4
298.18 K, x1 = 0.1 | 1.36724 | 22.5
298.18 K, x1 = 0.15 | 1.37038 | 22.58
298.18 K, x1 = 0.2 | 1.37312 | 22.66
298.18 K, x1 = 0.25 | 1.37554 | 22.73
298.18 K, x1 = 0.3 | 1.37769 | 22.79
298.18 K, x1 = 0.35 | 1.37961 | 22.85
298.18 K, x1 = 0.4 | 1.38134 | 22.91
298.18 K, x1 = 0.45 | 1.38291 | 22.96
298.18 K, x1 = 0.5 | 1.38434 | 23
298.18 K, x1 = 0.55 | 1.38564 | 23.05
298.18 K, x1 = 0.6 | 1.38684 | 23.1
298.18 K, x1 = 0.65 | 1.38795 | 23.15
298.18 K, x1 = 0.7 | 1.38897 | 23.2
298.18 K, x1 = 0.75 | 1.38993 | 23.26
298.18 K, x1 = 0.8 | 1.39083 | 23.31
298.18 K, x1 = 0.85 | 1.39169 | 23.35
298.18 K, x1 = 0.9 | 1.3925 | 23.4
298.18 K, x1 = 0.95 | 1.39328 | 23.45
298.18 K, x1 = 1 | 1.39401 | 23.5
308.15 K, x1 = 0.05 | 1.35942 | 21.57
308.15 K, x1 = 0.1 | 1.36295 | 21.64
308.15 K, x1 = 0.15 | 1.36603 | 21.7
308.15 K, x1 = 0.2 | 1.36872 | 21.76
308.15 K, x1 = 0.25 | 1.3711 | 21.81
308.15 K, x1 = 0.3 | 1.37321 | 21.86
308.15 K, x1 = 0.35 | 1.3751 | 21.91
308.15 K, x1 = 0.4 | 1.3768 | 21.96
308.15 K, x1 = 0.45 | 1.37834 | 22
308.15 K, x1 = 0.5 | 1.37974 | –
308.15 K, x1 = 0.55 | 1.38102 | 22.04
308.15 K, x1 = 0.6 | 1.3822 | 22.08
308.15 K, x1 = 0.65 | 1.38329 | 22.13
308.15 K, x1 = 0.7 | 1.3843 | 22.17
308.15 K, x1 = 0.75 | 1.38524 | 22.22
308.15 K, x1 = 0.8 | 1.38613 | 22.27
308.15 K, x1 = 0.85 | 1.38698 | 22.31
308.15 K, x1 = 0.9 | 1.38779 | 22.36
308.15 K, x1 = 0.95 | 1.38857 | 22.41
308.15 K, x1 = 1 | 1.38931 | 22.45
318.15 K, x1 = 0.05 | 1.35545 | 20.65
318.15 K, x1 = 0.1 | 1.35888 | 20.72
318.15 K, x1 = 0.15 | 1.36186 | 20.78
318.15 K, x1 = 0.2 | 1.36447 | 20.83
318.15 K, x1 = 0.25 | 1.36679 | 20.88
318.15 K, x1 = 0.3 | 1.36884 | 20.94
318.15 K, x1 = 0.35 | 1.37068 | 20.99
318.15 K, x1 = 0.4 | 1.37233 | 21.03
318.15 K, x1 = 0.45 | 1.37383 | 21.08
318.15 K, x1 = 0.5 | 1.37519 | 21.12
318.15 K, x1 = 0.55 | 1.37644 | 21.17
318.15 K, x1 = 0.6 | 1.37759 | 21.21
318.15 K, x1 = 0.65 | 1.37865 | 21.26
318.15 K, x1 = 0.7 | 1.37964 | 21.3
318.15 K, x1 = 0.75 | 1.38056 | 21.35
318.15 K, x1 = 0.8 | 1.38143 | 21.4
318.15 K, x1 = 0.85 | 1.38226 | 21.45
318.15 K, x1 = 0.9 | 1.38306 | 21.5
318.15 K, x1 = 0.95 | 1.38384 | 21.55
318.15 K, x1 = 1 | 1.38458 | 21.6

CCOC(=O)CC(C)=O [ethyl 3-oxobutanoate] + CCO
Conditions | refractive index, 288.15 K | refractive index, 298.18 K | refractive index, 308.15 K | refractive index, 318.15 K | surface tension liquid-gas, 288.15 K [mN/m] | surface tension liquid-gas, 298.18 K [mN/m] | surface tension liquid-gas, 308.15 K [mN/m] | surface tension liquid-gas, 318.15 K [mN/m]
[1], x1 = 0.05 | – | – | – | – | 23.53 | 22.77 | 21.91 | 20.98
[1], x1 = 0.1 | – | – | – | – | 24.1 | 23.31 | 22.42 | 21.46
[1], x1 = 0.15 | – | – | – | – | 24.65 | 23.83 | 22.91 | 21.94
[1], x1 = 0.2 | – | – | – | – | 25.22 | 24.38 | 23.42 | 22.43
[1], x1 = 0.25 | – | – | – | – | 25.77 | 24.89 | 23.9 | 22.9
[1], x1 = 0.3 | – | – | – | – | 26.28 | 25.38 | 24.38 | 23.37
[1], x1 = 0.35 | – | – | – | – | 26.78 | 25.88 | 24.84 | 23.83
[1], x1 = 0.4 | – | – | – | – | 27.28 | 26.36 | 25.32 | 24.3
[1], x1 = 0.45 | – | – | – | – | 27.8 | 26.86 | 25.81 | 24.79
[1], x1 = 0.5 | – | – | – | – | 28.35 | 27.4 | 26.32 | 25.29
[1], x1 = 0.55 | – | – | – | – | 28.92 | 27.96 | 26.84 | 25.8
[1], x1 = 0.6 | – | – | – | – | 29.46 | 28.52 | 27.38 | 26.31
[1], x1 = 0.65 | – | – | – | – | 30.02 | 29.04 | 27.9 | 26.81
[1], x1 = 0.7 | – | – | – | – | 30.54 | 29.55 | 28.4 | 27.3
[1], x1 = 0.75 | – | – | – | – | 31.05 | 30.06 | 28.89 | 27.78
[1], x1 = 0.8 | – | – | – | – | 31.53 | 30.54 | 29.36 | 28.24
[1], x1 = 0.85 | – | – | – | – | 32.02 | 31.01 | 29.81 | 28.7
[1], x1 = 0.9 | – | – | – | – | 32.47 | 31.46 | 30.26 | 29.14
[1], x1 = 0.95 | – | – | – | – | 32.91 | 31.89 | 30.68 | 29.56
[1], x1 = 1 | – | – | – | – | 33.3 | 32.3 | 31.1 | 30
[2], x1 = 0.05 | 1.3696 | 1.3654 | 1.3612 | 1.3572 | – | – | – | –
[2], x1 = 0.1 | 1.3751 | 1.3709 | 1.3666 | 1.3625 | – | – | – | –
[2], x1 = 0.15 | 1.38 | 1.3757 | 1.3714 | 1.3672 | – | – | – | –
[2], x1 = 0.2 | 1.3843 | 1.3801 | 1.3758 | 1.3715 | – | – | – | –
[2], x1 = 0.25 | 1.3882 | 1.384 | 1.3797 | 1.3755 | – | – | – | –
[2], x1 = 0.3 | 1.3918 | 1.3876 | 1.3833 | 1.379 | – | – | – | –
[2], x1 = 0.35 | 1.3951 | 1.3908 | 1.3866 | 1.3823 | – | – | – | –
[2], x1 = 0.4 | 1.3981 | 1.3938 | 1.3896 | 1.3852 | – | – | – | –
[2], x1 = 0.45 | 1.4009 | 1.3965 | 1.3923 | 1.388 | – | – | – | –
[2], x1 = 0.5 | 1.4034 | 1.3991 | 1.3949 | 1.3905 | – | – | – | –
[2], x1 = 0.55 | 1.4058 | 1.4014 | 1.3972 | 1.3928 | – | – | – | –
[2], x1 = 0.6 | 1.4079 | 1.4036 | 1.3994 | 1.395 | – | – | – | –
[2], x1 = 0.65 | 1.41 | 1.4056 | 1.4014 | 1.397 | – | – | – | –
[2], x1 = 0.7 | 1.4119 | 1.4075 | 1.4033 | 1.3989 | – | – | – | –
[2], x1 = 0.75 | 1.4137 | 1.4093 | 1.4051 | 1.4007 | – | – | – | –
[2], x1 = 0.8 | 1.4154 | 1.4111 | 1.4069 | 1.4024 | – | – | – | –
[2], x1 = 0.85 | 1.417 | 1.4126 | 1.4084 | 1.404 | – | – | – | –
[2], x1 = 0.9 | 1.4184 | 1.4141 | 1.4099 | 1.4054 | – | – | – | –
[2], x1 = 0.95 | 1.4198 | 1.4154 | 1.4112 | 1.4068 | – | – | – | –
[2], x1 = 1 | 1.4209 | 1.4166 | 1.4125 | 1.408 | – | – | – | –
